# Assay results published in US20040067923A1, “Use of biogenic estriol sulfamate prodrugs for treatment of autoimmune diseases” (priority 2002, published 2004).
# Experiments:
# [1] = test system: ovariectomised Wistar rats
# Experimental: Adult Wistar rats (6 months old) were ovariectomised and orally treated with estriol-3-O-sulfamate, reference compound and vehicle, respectively. Effects of treatment on uterine weight after 28 days of treatment were determined.
# [2] = test system: ovariectomised Wistar rats; conditions: 28 days
# Experimental: Adult Wistar rats (6 months old) were ovariectomised and orally treated with estriol-3-O-sulfamate, reference compound and vehicle, respectively. Effects on bone mineral density after 28 days of treatment were determined.
# [3] = 12 mg/day, Lindsay et al., 1979; cited from earlier work
# [4] = Head et al., 1998; cited from earlier work
# [5] = Heithecker et al., 1991; cited from earlier work
# [6] = ovariectomised Wistar rats, 28 days
SMILES,"systemic estrogen activity after oral application compared with estriol ([1]; conclusion based on Examples 1, 2 and 3)","oral dose to increase the uterine weight to basal level [1, 6]","potency relative to estriol administered orally, uterine weight test ([1]; ovariectomised Wistar rats, oral)","uterine weight dose relative to dose showing osteoprotective effects (tissue selectivity) ([1]; ovariectomised Wistar rats, oral, 28 days)",oral dose at which the loss in bone mineral density could be nearly restored [2],osteoprotective effects after oral administration [3],bone sparing effect at doses used for oral application of estriol-3-sulfamate [2],oral amount needed to achieve comparable serum levels of estriol as after intravaginal application [4],half-life [5]
C[C@]12CC[C@@H]3c4ccc(OS(N)(=O)=O)cc4CC[C@H]3[C@@H]1C[C@@H](O)[C@@H]2O [estriol-3-sulfamate],much higher systemic estrogen activity,100 μg/animal/day,about 3 fold,ten times more,10 μg/animal/day,,,,
C[C@]12CC[C@@H]3c4ccc(O)cc4CC[C@H]3[C@@H]1C[C@@H](O)[C@@H]2O [estriol],,300 μg/animal/day,,,,not able to show the osteoprotective effects,no bone sparing effect,ten times more,1.5 to 5.3 h
